Data from US20250127896A1, “CHIMERIC TIM4 RECEPTORS AND USES THEREOF” (CERO THERAPEUTICS HOLDINGS, INC., priority 2021, published 2025).

Key:
[1] = system: A2780 cells; conditions: for A2780 cells eliminated, single agent: compared to untreated; for A2780 cells eliminated, combination with niraparib: niraparib 0.5 μM; for A2780 cells eliminated, combination with niraparib / A2780 cells eliminated, combination with olaparib: after 5 days of co-culture; for A2780 cells eliminated, combination with olaparib: olaparib 1.5 μM
Procedure: FIG. 34B: At 120 hours, the ratio of cells remaining in treated samples compared to untreated A2780 samples was quantified using the incucyte data from FIG. 34A. FIG. 34C: Proliferation of CER T cells in co-culture assays.
At day 0, media was exchanged and donor T cells from three subjects (FIG. 28) transduced with CER-1234, CER-1236, or control CER-1183 (FIG. 27A) were added at various effector:target ratios to A2780 cells treated with PARPi to assess chimeric Tim4 receptor-T cell activation, cytokine production, proliferation, and cytotoxic responses. Chimeric Tim4 receptor-T cells immunophenotyping and bulk supernatant analysis was performed on day 2 and day 5 following initiation of co-culture.
CER T-cell cytotoxic function was evaluated using the Incucyte® live-cell analysis system in co-culture assays with A2780 cells. A2780 cells engineered to constitutively express mCherry were pretreated with 1.5 μM olaparib, 0.5 μM niraparib or no drug for 96 hours. CER T cells (expanded for 6 days after transduction) in T-cell optimizer media containing IL-2, IL-7, and IL-15 were co-cultured with A2780 cells at an effector:target (E:T) ratio of 1:2 in the presence of the same concentrations of olaparib or niraparib.

[2] = system: E7 TCR T cells; assay: APC-like function after co-culture with PS-positive E7-positive SCC152 cells: HLA-DR/CD25 on E7 TCR T cells; assay type: cell-based; conditions: for antigen presentation function versus untransduced T cells: FIG. 52, FIG. 53; for antigen presentation function, overall (FIGS. 50-54): repeated experiments; for activation (HLA-DR) of autologous E7 TCR T cells: after co-culture with E7-positive/PS-positive SCC152 cells, vs untransduced T cells or anti-CD19 CAR T cells
Source text: (§1) FIGS. 25A-25B: CER1236 T cells activate E7 TCR T cells via presentation of tumor cell-derived E7 antigen in an HLA-I-dependent manner. […] FIG. 25B: In a separate experiment, induction of HLA-DR on E7 TCR cells following co-culture of CER-1236 with E7 oncoprotein positive/PS-positive SCC152 cells was blocked by HLA-I blocking antibody, but not a control isotype antibody. Bars depict percentage of E7 TCR T cells that express the activation marker, HLA-DR. Error bars show SEM.
as §1, with “36A-36B:” for “25A-25B:”, “6B:” for “25B:”
(§2) CER1183, CER1161, CER1234 or CER1236 T cells were cultured alone or co-cultured with phosphatidylserine-positive HPV E7 oncoprotein-positive cells (TMEM30A−/− SCC152) for 48 hours, followed by positive selection of T cells and co-culture for a 4 days with cell trace violet labeled-HPV E7 TCR T cells.
as §2, with “(TMEM30A−/−SCC152)” for “(TMEM30A−/− SCC152)”, “for” for “for a”, “days (FIG. 51, left graph) or 6 days (FIG. 51, right graph)” for “days”
CER1183, CER1161, CER1234 or CER1236 T cells were cultured alone or co-cultured with phosphatidylserine-positive HPV E7 oncoprotein-positive cells (TMEM30A−/− SCC152) for 48 hours, followed by positive selection of T cells and co-culture for 4 days with cell trace violet labeled-HPV E7 TCR T cells.
CER1183, CER1161, CER1234 or CER1236 T cells were cultured alone or co-cultured with phosphatidylserine-positive HPV E7 oncoprotein-positive cells (TMEM30A−/−SCC152) for 48 hours, followed by positive selection of T cells and co-culture for 6 days with cell trace violet labeled-HPV E7 TCR T cells.
Antigen-presenting cell (APC)-like function of CER T cells was assessed after a 48-hour co-culture with phosphatidylserine-positive E7 oncoprotein-positive cells. T cells were separated and co-cultured for 4 days with cell trace violet-labeled E7 TCR T cells. The activation marker HLA-DR on E7 TCR T cells was analyzed using flow cytometry. Phosphatidylserine-positive SCC152 squamous cell carcinoma cells were engineered by knockout of the TMEM30A gene (a flippase chaperone required for PS internalization). The role of HLA-I in APC-like function was determined by performing the same experiment in the presence of HLA-I blocking or the corresponding isotype antibodies.
Phosphatidylserine exposure on A2780 ovarian cancer cells upon treatment with the small molecule PARP inhibitors niraparib or olaparib was evaluated by annexin v staining to determine the appropriate drug dose. Phosphatidylserine targeting Tim-4 CER constructs designed to enhance cytotoxicity and target-dependent tumor cell fragment uptake were engineered. CER T cell designs were as follows: CER-1234 (Tim-4/CD28/TLR2/CD3z; SEQ ID NO:18); CER-1236 (Tim-4/CD28/CD3z/TLR2; SEQ ID NO:19); and CER-1250 (Tim-4 binding mutant/CD28/TLR2/CD3z; SEQ ID NO:24). CER-1250 has the same intracellular signaling domains as […] but has a mutated IgV domain with AAAA substitution to abrogate phosphatidylserine binding. Niraparib (0.5 μM) and olaparib (1.5 μM) were used to expose phosphatidylserine on the surface of A2780 cells for CER T cell recognition and cytotoxicity, T-cell activation, and cytokine responses were evaluated. Uptake of antigen by CER-1236 T cells was modeled with human papilloma virus E7 antigen-expressing squamous carcinoma (SCC152) TMEM30A phospholipid flippase knockout cells. […]

[3] = system: Jeko1 TMEM30A−/− cells; assay: CER T cell cytotoxicity against Jeko1 TMEM30A−/− cells (Incucyte); assay type: cell-based; conditions: for cytotoxic function against Jeko1 TMEM30A−/− cells: co-culture assays
Procedure: FIG. 22: CER1234 or CER1236 T cells display cytotoxic function against Jeko1 TMEM30A^−/− MCL cells as measured by incucyte assay.
Statistical analysis was performed using 2-way ANOVA.

Substance | cytotoxic activity of CER T cells alone against A2780 cells [1] | A2780 cells eliminated, single agent [1] | A2780 cells eliminated, combination with niraparib [1] | A2780 cells eliminated, combination with olaparib [1] | antigen presentation function versus untransduced T cells [2] | antigen presentation function, overall (FIGS. 50-54) [2] | targets eliminated ([3]; JeKo-1 PS+ cells, 96 hrs, low effector:target ratios) | cytotoxic function against Jeko1 TMEM30A−/− cells [3] | HLA-DR MFI versus untransduced T cells ([2]; FIG. 50, FIG. 51, FIG. 54) | HLA class I dependence of E7 TCR activation ([2]; HLA-I blocking vs isotype antibody) | activation (HLA-DR) of autologous E7 TCR T cells [2] | activation (HLA-DR) of autologous E7 TCR T cells ([2]; listed as CER1236) | increase of activation status of E7 TCR T cells ([2]; exposed to TMEM30A″ SCC152 cancer cells relative to CER-1236 T cells alone)
CER-1234: chimeric Tim4 receptor: Tim4 binding domain-CD28tm-CD28-TLR2 TIR-CD3z, SEQ ID NO:18; tested as transduced T cells | limited cytotoxic activity | 39% | 58% | 66% | display better antigen presentation function than untransduced T cells | did not show any antigen presentation function over untransduced T cells in some experiments | 90% | efficiently eliminate Jeko1 TMEM30A^−/− cells | – | – | – | – | –
CER-1236: chimeric Tim4 receptor: Tim4 binding domain-CD28tm-CD28-CD3z-TLR2 TIR, SEQ ID NO:19; tested as transduced T cells | limited cytotoxic activity | 19% | 81% | 73% | display better antigen presentation function than untransduced T cells | consistently had better antigen presentation function compared to untransduced T cells | – | efficiently eliminate Jeko1 TMEM30A^−/− cells | significant difference in HLA-DR MFI | dependent on antigen presentation via the HLA class I system | induced HLA-DR on E7 TCR cells | supported greater activation of autologous E7 TCR T cells | 5 fold
